The values below come from patent US6214563A, “Photon reducing agents for reducing undesired light emission in assays” (Aurora Biosciences Corporation, priority 1998, dated 2001).

A short description of data set [1]: Effect of 50% methanol on coumarin fluorescence and phenol red absorbance (Example 2). The data set is classed as physicochemical. The method, then:
To further investigate the ability of a photon reducing agent to reduce fluorescence of a solution, fluorescence of a dye in the presence of a photon reducing agent was monitored in the presence and absence of methanol.
The fluorescence from a fluorophore in the presence of a photon reducing agent (phenol red) was determined in both aqueous buffer and aqueous buffer containing 50% (vol/vol) methanol. A 10 μM solution of 6-chloro-7-hydroxy coumarin-3-carboxylate was prepared in 39 mM phosphate buffer pH 7.5 and in a 1:1 mixture of same phosphate buffer and methanol. 1% (vol/vol) of a 100 mM aqueous Phenol Red stock solution was added to the solutions.

Another data set deals with arthritis. The conditions noted are these: in vivo; cited from earlier work.
Data set [2] can be described thus: Front face solution fluorescence of coumarin with and without phenol red (Example 1). The following applies: 1 mM phenol red; 0.5 μM coumarin; 50% methanol/phosphate buffer pH 7.5. The method, then: To investigate the ability of a photon reducing agent to reduce fluorescence of a solution, emission of a fluorophore from a sample was monitored in the presence and absence of a photon reducing agent.
Fluorescence from a solution of a blue fluorescent dye, 6-chloro-7-hydroxy coumarin 3-carboxylate, was determined in the presence and absence of a 1 mM phenol red as the photon reducing agent. A solution of 0.5 μM 6-chloro-7-hydroxy coumarin-3-carboxylate in solvent containing 50% (vol/vol) aqueous 39 mM phosphate buffer pH 7.5 and 50% (vol/vol) methanol was prepared. After taking a front face fluorescence spectrum of this solution on a Spex Fluorolog 2, 1% (vol/vol) of a 100 mM aqueous Phenol Red stock solution was added and another spectrum taken. Front face fluorescence refers to exciting the sample at a right angle to the sample surface and collecting emitted light (for example, from the excited region or emission region) at 12.5 degrees from such angle of excitation.

A short description of data set [3]: Absorption maxima of dyes (Table 1). The format is physicochemical. The conditions noted are these: value printed in parentheses.
The nature of data set [4]: Coumarin fluorescence as a function of path length (Example 6). The following applies: 10 μM coumarin + 1 mM phenol red; FIG. 10A. Here is the method:
To further investigate the ability of photon reducing agents to reduce fluorescence emitted from a solution, fluorescence emitted from a solution containing a fluorophore in the presence of a photon reducing agent was monitored as a function sample thickness.
A photon reducing agent, phenol red, was tested with a fluorophore, coumarin, as a function of sample thickness (path length). The experiment was conducted using a microscope equipped with epifluorescence. The liquid samples were drawn into low fluorescence capillary tubes of fixed path length (Vitro Dynamics, Rockaway N.J.) as indicated in the graphs. The following samples were evaluated:
The samples were excited using a 405/20 filter via a 425 dichroic reflector through a 20× objective (Zeiss 20× Fluar). Emitted light was filtered through a 460/50 filter and detected by an intensified CCD camera (Stanford Photonics, Menlo Park, Calif.). The detector output was converted to a 512×512 pixel eight-bit digital image. The data reflect the average intensity within a 20×20 pixel area within the capillary. The background intensity of the field was subtracted from all values.

Data set [5] in a line: Residual coumarin fluorescence with non-dye quenchers and particulates (Example 3). The conditions noted are these: ex. 395 nm, em. 460 nm; pH 7.5.
Another data set has as its system T-cells. The following applies: cited from earlier work.

Consider `O=C(O)c1cc2cc(Cl)c(O)cc2oc1=O` [6-chloro-7-hydroxy coumarin-3-carboxylate], for which the “increase of fluorescence in 50% methanol buffer” value in data set [1] (absence of a photon reducing agent) was “about 30%”.

Consider `C[C@]12CCC(=O)C=C1CC[C@@H]1[C@@H]2[C@@H](O)C[C@@]2(C)[C@H]1CC[C@]2(O)C(=O)CO` [Hydrocortisone], for which, in the data set with arthritis, the “efficacy in rabbit knee arthritis model” value is given as “efficacious in this model”.

Regarding `O=S1(=O)OC(c2ccc(O)cc2)(c2ccc(O)cc2)c2ccccc21` [phenol red], the “reduction of front face fluorescence” value in data set [2] turned out to be 70 fold. In data set [1] (50% methanol buffer), the “decrease of absorbance at the emission wavelength of the coumarin in 50% methanol buffer” value is recorded as “about 20%”. In addition, in data set [3], the “absorption maximum, value in parentheses” value amounted to 423 nm. In addition, the “attenuation of coumarin fluorescence” value in data set [4] is recorded as “significantly attenuated”.

Turning to `NCCN(CCN)CCN` [tris (2-aminoethyl) amine], the “concentration required (collisional quenchers)” value in data set [5] is “higher than 100 mM”.

In the case of cyclosporin A, the “prevention of T-cell proliferation in vitro” value with T-cells is “prevent proliferation of T-cells in vitro”.
